Data: US9629830B2, “EphA4 inhibitors as neuroprotective agents” (The Hong Kong University of Science and Technology, priority 2013, dated 2017)
Entries after “also recorded” stand apart in the source; their conditions may differ.

Key:
EphA4 (HT-22 cells) = target: T1, EphA4 (HT-22 cells) (Mus musculus, UniProt Q03137); assay: Cell-based binding of biotinylated ephrin-A1 to the surface of HT-22 cells; conditions: 10 min pre-incubation; Rhy 300 μM, KYL 100 μM (FIG. 10); biotinylated ephrin-A1 0.5 μg/mL
T1 construct: HT-22 cells, a cell line that expresses EphA4; endogenous in cells; host or cells: HT-22 cells
T1 sequence (Q03137 20-986): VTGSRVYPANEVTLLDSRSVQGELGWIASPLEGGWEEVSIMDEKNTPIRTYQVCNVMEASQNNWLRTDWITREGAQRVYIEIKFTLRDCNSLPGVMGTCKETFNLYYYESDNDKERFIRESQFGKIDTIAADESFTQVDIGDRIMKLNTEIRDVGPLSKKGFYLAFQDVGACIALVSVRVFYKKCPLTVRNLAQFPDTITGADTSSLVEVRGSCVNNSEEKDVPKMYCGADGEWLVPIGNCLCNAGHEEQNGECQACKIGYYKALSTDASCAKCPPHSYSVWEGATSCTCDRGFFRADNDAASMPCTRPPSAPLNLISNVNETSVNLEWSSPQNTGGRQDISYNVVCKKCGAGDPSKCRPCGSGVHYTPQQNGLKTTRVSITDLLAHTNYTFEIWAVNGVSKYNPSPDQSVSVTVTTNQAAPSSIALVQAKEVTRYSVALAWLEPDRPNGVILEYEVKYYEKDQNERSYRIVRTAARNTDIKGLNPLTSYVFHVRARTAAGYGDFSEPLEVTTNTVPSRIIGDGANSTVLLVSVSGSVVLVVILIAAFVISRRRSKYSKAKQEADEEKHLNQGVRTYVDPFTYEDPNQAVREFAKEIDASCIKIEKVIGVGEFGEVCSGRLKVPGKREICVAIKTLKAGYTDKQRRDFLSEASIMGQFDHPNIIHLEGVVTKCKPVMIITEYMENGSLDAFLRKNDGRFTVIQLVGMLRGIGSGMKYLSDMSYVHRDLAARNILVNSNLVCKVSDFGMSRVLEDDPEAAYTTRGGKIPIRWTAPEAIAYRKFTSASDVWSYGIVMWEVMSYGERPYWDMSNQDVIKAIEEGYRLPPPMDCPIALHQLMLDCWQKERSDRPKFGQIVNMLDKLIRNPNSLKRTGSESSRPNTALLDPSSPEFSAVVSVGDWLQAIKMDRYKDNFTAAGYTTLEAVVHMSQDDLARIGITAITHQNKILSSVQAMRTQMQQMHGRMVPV
Procedure: HT-22 cells were seeded on poly-D-lysine coverslips. […] The cells were then fixed with 4% paraformaldehyde and then immunostained with Alexa Fluor 488-conjugated Streptavidin antibody (Molecular Probes) for surfacing labeling of biotinylated ephrin-A1.

EphA4 = target: T2, EphA4 (Rattus norvegicus, UniProt D3ZZK3); assay: ephrin-A1-induced EphA4 tyrosine phosphorylation in cortical neurons (immunoprecipitation, western blot); assay type: cell-based; conditions: cortical neurons pretreated with compound, then ephrin-A1; western blot for P-Tyr
T2 construct: endogenous in cells; host or cells: primary rat cortical neurons (A5), primary rat hippocampal neurons (A7)
T2 sequence (D3ZZK3 20-986): as the sequence (Q03137 20-986) above, with S270T, K559Q, S874P counted along it
Procedure: Primary cortical and hippocampal neurons were prepared from embryonic day 18-19 rat embryos as described previously^24. Briefly, cortical neurons (6×10^6 per plate) were plated on 100-mm culture dishes coated with poly-D-lysine (12.5 μg/mL; Sigma). Rat hippocampal neurons were seeded on 18-mm coverslips coated with poly-D-lysine (50 μg/mL) at a density of 0.5×10^5/18-mm coverslip for immunocytochemical analysis, 0.1×10^5/18-mm coverslip for growth cone collapse assay, or 1×10^5 or 1.5×10^5/18-mm coverslip for mEPSC recording. Neurons were fed Neurobasal medium (Invitrogen) supplemented with 2% B27 (Invitrogen). Acute brain slices were prepared from P15-P17 Sprague-Dawley rats. Briefly, the rats were rapidly decapitated, and their brains were immersed in ice-cold artificial cerebrospinal fluid (ACSF). The hippocampus was dissected, and 300-μm-thick slices were prepared using a vibratome (Lieca). The slices were then transferred into an incubating chamber containing circulating ACSF equilibrated with 95% O2+5% CO2 and held at room temperature for at least 2 h for recovery prior to experiments^65.
For the immunoprecipitation assay, lysates were immunoprecipitated with the corresponding antibody for 2 h at 4° C. followed by incubation with protein G Sepharose for 1 h at 4° C.^24. […] EphA4 tyrosine phosphorylation was detected by western blot analysis using 4G10 antibody. […]

[1] = test system: Aβ-induced impairment of hippocampal LTP; assay: HFS-induced LTP (fEPSP slope) in acute hippocampal slices treated with Aβ; assay type: cell-based, mouse
Procedure: Oligomeric Aβ (Aβ) was prepared as described previously^59,60. Briefly, 0.5 mg monomeric Aβ1-42 was dissolved in 22.2 μL dry DMSO and then diluted in ice-cold phenol-red free F-12 medium to yield a final Aβ concentration of 100 μM. The Aβ solution was incubated at 4° C. for 24 h and then centrifuged at 14,000×g for 10 min. The supernatant was frozen in liquid nitrogen and stored at −20° C. for up to 1 month. Unless specified, cultured neurons or hippocampal slices were typically treated with Aβ at 500 nM.
For LTP recordings, mouse brains were immediately dissected after sacrifice and soaked in ice-cold 95% O2/5% CO2 (aCSF)^58. Brain slices (300 μm thick) were prepared using a vibrating tissue slicer (HM650V; Thermo), and soaked in oxygenated buffer for 2 h at 32° C. The hippocampal regions were resected and placed at the center of a MED-P210A probe (Panasonic International Inc) with 64 embedded recording electrodes. The slices were then perfused with Aβ at 500 nM in oxygenated aCSF for 2 h before LTP induction^70. For treatment with EphA4 inhibitors, the slices were pretreated with peptides or chemicals for 1 h before application of Aβ. fEPSPs were recorded using a MED64 multichannel recording system, and the data were collected from the dendritic layer of area CA1 at a sampling rate of 10 kHz. For each slice, the baseline stimulus intensity was set at the level that elicited ˜50% of the maximum fEPSP response determined according to the input-output curve. LTP was induced by 3 trains of HFS (100 Hz, 1 s, delivered 30 s apart). The magnitude of LTP was quantified as a percentage change in the fEPSP slope (10%-90%) taken during the 60-min interval after LTP induction.

Tg2576 mutant mice = assay: HFS-induced hippocampal LTP in WT and Tg2576 mice after oral treatment; assay type: in vivo, mouse
Excerpt: APP/PS1 double-transgenic mice were obtained from Jackson Laboratory (B6C3-Tg[APPswe, PSEN1dE9]85Dbo/J)^66. These mice were generated by incorporating a human/murine APP construct bearing the Swedish double mutation and the exon-9-deleted PSEN1 mutation (APPswe+PSEN1/dE9). APP transgenic mice (Tg2576) expressing a double mutant of human AβPP (Lys^670→Asn^670, Met^671→Leu^671) were also used^31. Both sexes were used for experiments, and all mice used in this study were produced by the Animal Care Facility of The Hong Kong University of Science and Technology. The genotype was confirmed by polymerase chain reaction analysis of tail biopsies. Four to five mice of the same sex were housed in a cage with food and water ad libitum with a 12-hour light/dark cycle.
To investigate the effect of blocking EphA4 signaling by KYL peptide in AD mice, 4-5-month-old AD transgenic mice were implanted with Alzet mini-osmotic pumps, model 1004, pumping its contents at 0.11 μL/h for 28 days. Pumps were loaded with either 0.23 μg/μL KYL peptide (17 μg) or vehicle solvent in artificial cerebrospinal fluid (CSF). The mini-osmotic pumps were adjusted intracerebroventricularly in the right hemisphere. […]
For LTP recordings, mouse brains were immediately dissected after sacrifice and soaked in ice-cold 95% O2/5% CO2 (aCSF)^58. […] For treatment with EphA4 inhibitors, the slices were pretreated with peptides or chemicals for 1 h before application of Aβ. fEPSPs were recorded using a MED64 multichannel recording system, and the data were collected from the dendritic layer of area CA1 at a sampling rate of 10 kHz. For each slice, the baseline stimulus intensity was set at the level that elicited ˜50% of the maximum fEPSP response determined according to the input-output curve. […] The magnitude of LTP was quantified as a percentage change in the fEPSP slope (10%-90%) taken during the 60-min interval after LTP induction.

[2] = In vitro stability assay in mouse serum (UPLC-MS/MS); assay type: in vitro ADME; conditions: 3 μM, over the 360-min incubation period
APP/PS1 mice = assay: Adult neurogenesis (Ki67 staining) in hippocampus of APP/PS1 mice; assay type: in vivo, mouse; conditions: Rhy oral 50 mg/kg for over three months, versus control-treated mice
Excerpt: The mouse brains were sectioned and stained with Ki67 antibody, which labelled all cells in the cell cycle, but not those differentiated progenitors and newly born neurons.

NMDA receptors = assay: NMDA current in hippocampal neurons; assay type: cell-based; conditions: data not shown
NMDA receptor = conditions: subsequent study; cited from earlier work

CC[C@H]1CN2CC[C@]3(C(=O)Nc4ccccc43)[C@@H]2C[C@@H]1/C(=C\OC)C(=O)OC [Rhy, methyl (7β,16E,20α)-16-(methoxymethylene)-2-oxocorynoxan-17-oate]
binding of ephrin-A1 to HT-22 cells (EphA4 (HT-22 cells)): reduced the binding of ephrin-A1 to HT-22 cells; also recorded: reduces the binding of ephrin-A1 to the surface of HT22 cells | ephrin-A1-induced EphA4 tyrosine phosphorylation (EphA4): reduced the specific phosphorylation; also recorded: inhibited Eph-ephrin-A interaction and EphA4 tyrosine phosphorylation | mean fEPSP slope, last 10 min after LTP induction ([1]; Rhy 30 μM + Aβ, Aβ alone 131.1±3.9%): 174.1±9.8% | mean fEPSP slope, last 10 min after LTP induction ([1]; Rhy 30 μM alone, control 172.7±7.5%): 168.1±6.0% | mean fEPSP slope, last 10 min after LTP induction (Tg2576 mutant mice; Tg2576 mice, Rhy oral 20 mg·kg−1·day−1 for 3 weeks, Tg Con 119.0±3.7%): 161.9±2.9% | mean fEPSP slope, last 10 min after LTP induction (Tg2576 mutant mice; Tg2576 mice, Rhy oral 50 mg·kg−1·day−1 for 3 weeks, Tg Con 119.0±3.7%): 159.7±17.9% | mean fEPSP slope, last 10 min after LTP induction (Tg2576 mutant mice; WT mice, Rhy oral 20 mg·kg−1·day−1 for 3 weeks, WT Con 170.1±9.7%): 167.3±5.2% | reduction of Rhy concentration in serum [2]: ~20% | number of Ki-67+ neural progenitors in dentate gyrus (APP/PS1 mice): increased the number of Ki-67+ neural progenitors | inhibition of NMDA current in hippocampal neurons (NMDA receptors): unable to inhibit NMDA current | binding to NMDA receptor (NMDA receptor): neither binds to NMDA receptor
